Test results reported in ChEMBL document CHEMBL3727370, “HM74 receptor agonists:xanthine derivatives, corresponding pharmaceutical compositions, treatment methods and processes” (2013).

Biological target: Hydroxycarboxylic acid receptor 2 (Homo sapiens, UniProt Q8TDS4)
Test: Agonist activity at human HM74A transfected in CHO-K1 cells for 4 hrs by [35S]-GTPgammaS binding assay
Assay type: functional, cell-based

Sequence of Hydroxycarboxylic acid receptor 2 (Q8TDS4 whole entry): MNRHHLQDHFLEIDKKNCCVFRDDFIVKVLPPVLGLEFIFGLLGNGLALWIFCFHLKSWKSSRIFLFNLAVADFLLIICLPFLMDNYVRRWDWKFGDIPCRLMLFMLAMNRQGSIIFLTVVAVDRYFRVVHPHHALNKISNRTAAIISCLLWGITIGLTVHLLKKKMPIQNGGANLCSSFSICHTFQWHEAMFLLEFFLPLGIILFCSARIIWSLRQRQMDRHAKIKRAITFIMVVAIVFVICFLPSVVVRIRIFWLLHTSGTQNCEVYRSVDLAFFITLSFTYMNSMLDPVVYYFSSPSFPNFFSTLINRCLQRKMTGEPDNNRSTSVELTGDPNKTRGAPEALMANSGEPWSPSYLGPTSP

Structure (SMILES)	EC50	Efficacy
CCCn1c(=O)n(CC#N)c(=O)c2[nH]c(Cl)nc21	< 12.6 µM	> 30%
N#CCn1c(=O)c2[nH]c(Cl)nc2n(CC#N)c1=O	< 12.6 µM	> 30%
CCCCn1c(=O)n(C)c(=O)c2[nH]c(Cl)nc21	–	> 30%
O=c1[nH]c(=O)n(CCC2CCCCC2)c2nc(Cl)[nH]c12	< 12.6 µM	> 30%
O=c1[nH]c(=O)n(CC(F)(F)F)c2nc(Cl)[nH]c12	< 12.6 µM	> 30%
C=CCCCn1c(=O)[nH]c(=O)c2[nH]c(Cl)nc21	< 12.6 µM	> 30%
CCCCCn1c(=O)n(C)c(=O)c2[nH]c(Br)nc21	< 12.6 µM	> 30%
CCCCCCCCCCn1c(=O)[nH]c(=O)c2[nH]c(Cl)nc21	< 12.6 µM	> 30%
CCCCn1c(=O)n(CC)c(=O)c2[nH]c(Cl)nc21	< 12.6 µM	> 30%
O=c1[nH]c(=O)n(CCCC(F)(F)F)c2nc(Cl)[nH]c12	< 12.6 µM	> 30%
CCCCn1c(=O)n(CC#N)c(=O)c2[nH]c(Cl)nc21	< 12.6 µM	> 30%
CC(C)CCCCCn1c(=O)[nH]c(=O)c2[nH]c(Cl)nc21	< 12.6 µM	> 30%
CCCn1c(=O)c2[nH]c(Cl)nc2n(CC(F)(F)F)c1=O	< 12.6 µM	> 30%
CCCCn1c(=O)c2[nH]c(I)nc2n(CCCC)c1=O	< 12.6 µM	> 30%
O=c1[nH]c(=O)n(CC2CCCCC2)c2nc(Cl)[nH]c12	< 12.6 µM	> 30%
O=c1[nH]c(=O)n(CCCF)c2nc(Cl)[nH]c12	< 12.6 µM	> 30%

Structure (SMILES)	EC50	Efficacy
CCCCn1c(=O)[nH]c(=O)c2[nH]c(Cl)nc21	< 12.6 µM	> 30%
O=c1[nH]c(=O)n(CCC2CC2)c2nc(Cl)[nH]c12	< 12.6 µM	> 30%
O=c1[nH]c(=O)n(CCC(F)(F)F)c2nc(Cl)[nH]c12	< 12.6 µM	> 30%
CC(C)CCCn1c(=O)[nH]c(=O)c2[nH]c(Cl)nc21	< 12.6 µM	> 30%
O=c1[nH]c(=O)n(CC2CCC2)c2nc(Cl)[nH]c12	< 12.6 µM	> 30%
CCC(C)Cn1c(=O)[nH]c(=O)c2[nH]c(Cl)nc21 (racemic)	< 12.6 µM	> 30%
CC(C)CCn1c(=O)[nH]c(=O)c2[nH]c(Cl)nc21	< 12.6 µM	> 30%
Cn1c(=O)c2[nH]c(Cl)nc2n(CCCC(F)(F)F)c1=O	< 12.6 µM	> 30%
CCCCCCn1c(=O)[nH]c(=O)c2[nH]c(Cl)nc21	< 12.6 µM	> 30%
C=CCCn1c(=O)[nH]c(=O)c2[nH]c(Cl)nc21	< 12.6 µM	> 30%
CCCC(C)Cn1c(=O)[nH]c(=O)c2[nH]c(Cl)nc21 (racemic)	< 12.6 µM	> 30%
O=c1[nH]c(=O)n(CC2CCCC2)c2nc(Cl)[nH]c12	< 12.6 µM	> 30%
O=c1[nH]c(=O)n(CCC2CCCC2)c2nc(Cl)[nH]c12	< 12.6 µM	> 30%
CCn1c(=O)c2[nH]c(Cl)nc2n(CC(F)(F)F)c1=O	< 12.6 µM	> 30%
CCCn1c(=O)n(C)c(=O)c2[nH]c(Cl)nc21	< 12.6 µM	> 30%
O=c1[nH]c(=O)n(CCCCCF)c2nc(Cl)[nH]c12	< 12.6 µM	> 30%

Results, then the compound that gave them:

EC50	Efficacy	Structure (SMILES)
< 12.6 µM	> 30%	O=c1[nH]c(=O)n(CCCCF)c2nc(Cl)[nH]c12
< 12.6 µM	> 30%	Cn1c(=O)c2[nH]c(Cl)nc2n(CCCC#N)c1=O
< 12.6 µM	> 30%	CCCCCCCCn1c(=O)[nH]c(=O)c2[nH]c(Cl)nc21
< 12.6 µM	> 30%	CCCCn1c(=O)n(C)c(=O)c2[nH]c(C#N)nc21
< 12.6 µM	> 30%	CCCCCn1c(=O)n(C)c(=O)c2[nH]c(Cl)nc21
< 12.6 µM	> 30%	CCCCCn1c(=O)n(C)c(=O)c2[nH]c(C#N)nc21
< 12.6 µM	> 30%	CCC(C)CCn1c(=O)[nH]c(=O)c2[nH]c(Cl)nc21 (racemic)
< 12.6 µM	> 30%	CCCCCCn1c(=O)n(C)c(=O)c2[nH]c(Cl)nc21
< 12.6 µM	> 30%	CC(C)(C#N)CCCCn1c(=O)[nH]c(=O)c2[nH]c(Cl)nc21
< 12.6 µM	> 30%	O=c1c2[nH]c(Cl)nc2n(CCCC(F)(F)F)c(=O)n1CCCC(F)(F)F
< 12.6 µM	> 30%	CCCCCn1c(=O)[nH]c(=O)c2[nH]c(Cl)nc21
< 12.6 µM	> 30%	O=c1[nH]c(=O)n(CCC2CCC2)c2nc(Cl)[nH]c12
< 12.6 µM	> 30%	CCn1c(=O)n(C)c(=O)c2[nH]c(Cl)nc21
< 12.6 µM	> 30%	N#CCCCn1c(=O)[nH]c(=O)c2[nH]c(Cl)nc21
< 12.6 µM	> 30%	O=c1[nH]c(=O)n(CCCCCCF)c2nc(Cl)[nH]c12
< 12.6 µM	> 30%	O=c1[nH]c(=O)n(CC2CC2)c2nc(Cl)[nH]c12
< 12.6 µM	> 30%	O=c1c2[nH]c(Cl)nc2n(CC(F)(F)F)c(=O)n1CCCC(F)(F)F
< 12.6 µM	> 30%	CCCn1c(=O)[nH]c(=O)c2[nH]c(Cl)nc21
< 12.6 µM	> 30%	CCCCn1c(=O)c2[nH]c(C#N)nc2n(CCCC)c1=O
< 12.6 µM	> 30%	O=c1[nH]c(=O)n(CCCC2CC2)c2nc(Cl)[nH]c12
< 12.6 µM	> 30%	N#CCn1c(=O)[nH]c(=O)c2[nH]c(Cl)nc21
< 12.6 µM	> 30%	N#CCn1c(=O)c2[nH]c(Cl)nc2n(CCC2CC2)c1=O
